Assay results as given in ChEMBL document CHEMBL3352663, “Inhibition of group IVA cytosolic phospholipase A2 by thiazolyl ketones in vitro, ex vivo, and in vivo” (J Med Chem, 2014).

tested on: GVIA iPLA2 (Homo sapiens); experiment: Inhibition of human recombinant GVIA iPLA2 using 400 uM Triton X-100/98.3 uM PAPC/1.7 uM 14C-labeled PAPC substrate mixedmicelles at 1 uM

Structure (SMILES) | inhibition
O=C(COc1ccccc1)c1nccs1 | 13%
CCCCCCCCc1ccc(OCC(=O)c2nccs2)cc1 | 67%
O=C(COc1ccc(F)cc1)c1nccs1 | 5%
CCCCCCCCCCCCOCC(=O)c1nc(CC(=O)OCC)cs1 | 91%
O=C(COc1ccc(-c2ccccc2)cc1)c1nccs1 | 23%
CCCCCCCCCCCCOCC(=O)c1nc(C(=O)OCC)cs1 | 92%
CCCCCCCCc1ccc(OCC(=O)c2nc3ccccc3s2)cc1 | 77%
CCCCCCCCc1ccc(OCC(=O)c2nc(CC(=O)OCC)cs2)cc1 | 76%
